Like-named read-outs stand apart in the source and are kept apart here.
Key:
non-expressing oocytes [1] = assay: cells; type: cell-based, Xenopus laevis; settings: non-expressing oocytes, total [3H]CQ transport, normalised to the oocyte type control
Procedure, shortened: (§1)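 Washed oocytes (ten per treatment) were exposed to label in pH 5.5 ND96 for 1.5 h at 27.5 °C. Buffer was then removed, cells rinsed in ice-cold ND96, lysed in SDS and counted.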

PfCRT^3D7 [2] = molecular target: T1, PfCRT^3D7 (Plasmodium falciparum, UniProt Q8IBZ9); assay: cell-based; type: cell-based; settings: PfCRT3D7 oocytes, total [3H]CQ transport, normalised to the oocyte type control
Procedure, shortened: as §1

PfCRT^Dd2 [3] = molecular target: T2, PfCRT^Dd2 (Plasmodium falciparum, UniProt Q9N623, A220S/I356T/K76T/M74I/N326S/N75E/Q271E/R371I); assay: [3H]CQ uptake into Xenopus oocytes, cis-inhibition by unlabelled solute; type: cell-based; settings: PfCRTDd2 oocytes, background [3H]CQ accumulation subtracted, normalised to oocyte type control
Procedure, shortened: as §1

PfCRT^Ecu1110 [4] = molecular target: T3, PfCRT^Ecu1110 (Plasmodium falciparum, UniProt Q9N623, A220S/I356L/K76T/N326D); assay: as above; type: cell-based; settings: for Uptake of [3H]CQ (% PfCRTEcu1110 control), cis-inhibition / PfCRT-mediated [3H]CQ transport, cis-inhibition (% PfCRTEcu1110 control): PfCRTEcu1110 oocytes; for Uptake of [3H]CQ (% PfCRTEcu1110 control), cis-inhibition: total [3H]CQ transport, normalised to the oocyte type control; for PfCRT-mediated [3H]CQ transport, cis-inhibition (% PfCRTEcu1110 control): background [3H]CQ accumulation subtracted, normalised to oocyte type control; for [3H]CQ transport (% PfCRTEcu1110 control), cis-inhibition, PfCRTEcu1110: PfCRT-mediated component (background subtracted), sheet title says normalised to PfCRTDd2 control, mean ± SEM, SEM
Procedure, shortened: as §1

non-expressing oocytes [5] = type: cell-based, Xenopus laevis; settings: non-expressing oocytes, total [3H]CQ transport, normalised to the oocyte type control
Procedure, shortened: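 Oocytes (ten per treatment, ≥4 independent frogs/days) were preloaded by injecting VF-6 in 25 nL ND96 at pH 5.0, 5.5, 6.0 or 7.0, or Na^+-free choline buffer, then uptake run 1.5 h, 27.5 °C, ND96 pH 5.5 by default. Internal concentrations assumed ~400 nL oocyte volume.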

PfCRT^3D7 [6] = molecular target: T1, PfCRT^3D7; assay: cell-based; type: cell-based; settings: PfCRT3D7 oocytes; for Uptake of [3H]CQ (% PfCRT3D7 control), trans-stimulation: total [3H]CQ transport, normalised to the oocyte type control; for PfCRT-mediated [3H]CQ transport, trans-stimulation (% PfCRT3D7 control): normalised to oocyte type control
Procedure, shortened: (§2)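 Transport measured in Xenopus oocytes expressing the transporters, 1.5 h at 27.5 °C in ND96 pH 5.5 unless noted. For trans-stimulation, VF-6 injected in 25 nL ND96 at pH 5.0–7.0 or Na^+-free (choline) buffer; intracellular levels based on ~400 nL oocyte volume. Ten oocytes per treatment, ≥4 experiments.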

PfCRT^Dd2 [7] = molecular target: T2, PfCRT^Dd2; assay: cell-based; type: cell-based; settings: for PfCRT-mediated [3H]CQ transport, trans-stimulation (% PfCRTDd2 control): normalised to oocyte type control; for [3H]CQ transport (% PfCRTDd2 control), trans-stimulation, PfCRTDd2: PfCRT-mediated component (background subtracted), mean ± SEM, SEM
Procedure, shortened: as §2

PfCRT^Ecu1110 [8] = molecular target: T3, PfCRT^Ecu1110; assay: cell-based; type: cell-based; settings: for Uptake of [3H]CQ (% PfCRTEcu1110 control), trans-stimulation / PfCRT-mediated [3H]CQ transport, trans-stimulation (% PfCRTEcu1110 control): PfCRTEcu1110 oocytes; for Uptake of [3H]CQ (% PfCRTEcu1110 control), trans-stimulation: total [3H]CQ transport, normalised to the oocyte type control; for PfCRT-mediated [3H]CQ transport, trans-stimulation (% PfCRTEcu1110 control): normalised to oocyte type control; for [3H]CQ transport (% PfCRTDd2 control), trans-stimulation, PfCRTEcu1110: PfCRT-mediated component (background subtracted), sheet title says normalised to PfCRTDd2 control, mean ± SEM, SEM
Procedure, shortened: as §2

PfNT1 = molecular target: T4, PfNT1 (Plasmodium falciparum, UniProt Q8IDM6); assay: cell-based; type: cell-based; settings: PfNT1 oocytes, total [3H]CQ transport, normalised to the oocyte type control
T4 construct: expressed in transfected cells; host or cells: Xenopus laevis oocytes (stage V-VI), cRNA-injected
Procedure, shortened: as §2

[9] = [test solute]i = 45 mM (30 mM for some solutes due to solubility)
[10] = [test solute]i = 5 mM (intracellular)
[11] = [test solute]i = 45 mM (intracellular; 30 mM for some solutes due to solubility)
[12] = [test solute]i = 5 mM (injected)

T3 sequence (Q9N623 whole entry A220S/I356L/K76T/N326D): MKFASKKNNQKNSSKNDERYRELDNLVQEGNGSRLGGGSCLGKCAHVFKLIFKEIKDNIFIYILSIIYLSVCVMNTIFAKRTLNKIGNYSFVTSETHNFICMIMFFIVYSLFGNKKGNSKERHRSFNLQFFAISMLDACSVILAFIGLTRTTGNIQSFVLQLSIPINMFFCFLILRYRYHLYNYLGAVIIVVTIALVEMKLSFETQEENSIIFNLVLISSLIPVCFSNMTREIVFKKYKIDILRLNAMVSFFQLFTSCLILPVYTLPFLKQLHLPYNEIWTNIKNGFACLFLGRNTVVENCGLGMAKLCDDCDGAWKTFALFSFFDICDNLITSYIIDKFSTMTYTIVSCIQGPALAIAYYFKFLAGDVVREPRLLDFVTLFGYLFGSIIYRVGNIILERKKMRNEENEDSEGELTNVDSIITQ
T2 sequence (Q9N623 whole entry A220S/I356T/K76T/M74I/N326S/N75E/Q271E/R371I): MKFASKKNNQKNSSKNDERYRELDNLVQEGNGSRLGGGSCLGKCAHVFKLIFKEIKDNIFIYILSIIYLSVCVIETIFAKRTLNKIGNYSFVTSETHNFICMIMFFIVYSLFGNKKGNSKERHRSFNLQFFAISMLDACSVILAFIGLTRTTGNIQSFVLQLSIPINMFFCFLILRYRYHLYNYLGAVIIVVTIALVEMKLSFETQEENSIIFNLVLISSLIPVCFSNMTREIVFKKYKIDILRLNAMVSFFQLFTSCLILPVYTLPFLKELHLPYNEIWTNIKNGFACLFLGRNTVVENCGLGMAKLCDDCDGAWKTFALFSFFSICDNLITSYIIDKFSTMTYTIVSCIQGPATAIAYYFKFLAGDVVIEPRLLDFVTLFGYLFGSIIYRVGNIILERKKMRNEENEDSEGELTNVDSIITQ
T1 sequence (Q8IBZ9 59-398): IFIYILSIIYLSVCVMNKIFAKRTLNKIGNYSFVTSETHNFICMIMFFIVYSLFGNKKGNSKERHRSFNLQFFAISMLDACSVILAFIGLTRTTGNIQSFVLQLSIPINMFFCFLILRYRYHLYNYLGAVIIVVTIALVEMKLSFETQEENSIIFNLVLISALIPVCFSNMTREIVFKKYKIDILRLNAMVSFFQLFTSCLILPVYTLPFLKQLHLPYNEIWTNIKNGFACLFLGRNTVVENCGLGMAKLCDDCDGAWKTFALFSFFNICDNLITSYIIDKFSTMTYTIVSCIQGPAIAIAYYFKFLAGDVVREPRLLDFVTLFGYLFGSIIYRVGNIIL
T4 sequence (Q8IDM6 whole entry): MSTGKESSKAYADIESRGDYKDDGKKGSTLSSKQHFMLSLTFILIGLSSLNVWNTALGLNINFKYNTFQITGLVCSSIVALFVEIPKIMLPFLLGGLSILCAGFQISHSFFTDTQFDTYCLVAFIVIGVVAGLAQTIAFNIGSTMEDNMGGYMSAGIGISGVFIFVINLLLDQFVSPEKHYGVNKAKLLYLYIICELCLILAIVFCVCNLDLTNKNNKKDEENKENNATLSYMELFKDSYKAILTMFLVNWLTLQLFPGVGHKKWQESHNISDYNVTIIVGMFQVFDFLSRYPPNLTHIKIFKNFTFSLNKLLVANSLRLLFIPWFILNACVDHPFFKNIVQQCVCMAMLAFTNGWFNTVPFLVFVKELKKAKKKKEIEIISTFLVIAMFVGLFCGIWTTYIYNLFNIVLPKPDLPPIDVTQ

For GGYR [GR-4], the “Uptake of [3H]CQ (% non-expressing oocyte control), cis-inhibition” value (non-expressing oocytes [1]; [test solute] = 0.5 mM) was 99 ± 5.2 % non-expressing oocyte control, the “Uptake of [3H]CQ (% non-expressing oocyte control), cis-inhibition” value (non-expressing oocytes [1]; [test solute] = 2 mM) was 100 ± 3.6 % non-expressing oocyte control and the “Uptake of [3H]CQ (% PfCRT3D7 control), cis-inhibition” value (PfCRT^3D7 [2]; [test solute] = 0.5 mM) was 102 ± 4.3 % PfCRT3D7 control. The “Uptake of [3H]CQ (% PfCRT3D7 control), cis-inhibition” value (PfCRT^3D7 [2]; [test solute] = 1 mM) was 98 ± 4.8 % PfCRT3D7 control, the “Uptake of [3H]CQ (% PfCRT3D7 control), cis-inhibition” value (PfCRT^3D7 [2]; [test solute] = 2 mM) was 102 ± 5.8 % PfCRT3D7 control and the “PfCRT-mediated [3H]CQ transport, cis-inhibition (% PfCRTDd2 control)” value (PfCRT^Dd2 [3]; [test solute] = 0.5 mM) was 71 ± 2.9 % PfCRTDd2 control. The “PfCRT-mediated [3H]CQ transport, cis-inhibition (% PfCRTDd2 control)” value (PfCRT^Dd2 [3]; [test solute] = 1 mM) was 58 ± 4.2 % PfCRTDd2 control, the “PfCRT-mediated [3H]CQ transport, cis-inhibition (% PfCRTDd2 control)” value (PfCRT^Dd2 [3]; [test solute] = 2 mM) was 40 ± 2.1 % PfCRTDd2 control and the “Uptake of [3H]CQ (% PfCRTEcu1110 control), cis-inhibition” value (PfCRT^Ecu1110 [4]; [test solute] = 0.5 mM) was 78 ± 6.9 % PfCRTEcu1110 control. For the same substance, the “Uptake of [3H]CQ (% PfCRTEcu1110 control), cis-inhibition” value (PfCRT^Ecu1110 [4]; [test solute] = 1 mM) was 65 ± 7.1 % PfCRTEcu1110 control, the “Uptake of [3H]CQ (% PfCRTEcu1110 control), cis-inhibition” value (PfCRT^Ecu1110 [4]; [test solute] = 2 mM) was 53 ± 4.7 % PfCRTEcu1110 control and the “PfCRT-mediated [3H]CQ transport, cis-inhibition (% PfCRTEcu1110 control)” value (PfCRT^Ecu1110 [4]; [test solute] = 0.5 mM) was 71 ± 2.5 % PfCRTEcu1110 control. For the same substance, the “PfCRT-mediated [3H]CQ transport, cis-inhibition (% PfCRTEcu1110 control)” value (PfCRT^Ecu1110 [4]; [test solute] = 1 mM) was 59 ± 2.4 % PfCRTEcu1110 control, the “PfCRT-mediated [3H]CQ transport, cis-inhibition (% PfCRTEcu1110 control)” value (PfCRT^Ecu1110 [4]; [test solute] = 2 mM) was 48 ± 3.1 % PfCRTEcu1110 control and the “[3H]CQ transport (% PfCRTEcu1110 control), cis-inhibition, PfCRTEcu1110” value (PfCRT^Ecu1110 [4]; [test solute] = 1 mM) was 19 ± 0.1 % PfCRTEcu1110 control. For the same substance, the “[3H]CQ transport (% PfCRTEcu1110 control), cis-inhibition, PfCRTEcu1110” value (PfCRT^Ecu1110 [4]; [test solute] = 2 mM) was 15 ± 0.6 % PfCRTEcu1110 control, the “Uptake of [3H]CQ (% non-expressing oocyte control), trans-stimulation” value (non-expressing oocytes [5]; [test solute]i = 5 mM) was 100 ± 2.7 % non-expressing oocyte control and the “Uptake of [3H]CQ (% non-expressing oocyte control), trans-stimulation” value (non-expressing oocytes [5]; [9]) was 97 ± 2.5 % non-expressing oocyte control. The “Uptake of [3H]CQ (% PfCRT3D7 control), trans-stimulation” value (PfCRT^3D7 [6]; [test solute]i = 5 mM) was 100 ± 2.6 % PfCRT3D7 control, the “Uptake of [3H]CQ (% PfCRT3D7 control), trans-stimulation” value (PfCRT^3D7 [6]; [9]) was 99 ± 2.6 % PfCRT3D7 control and the “PfCRT-mediated [3H]CQ transport, trans-stimulation (% PfCRT3D7 control)” value (PfCRT^3D7 [6]; [10]) was 98 ± 3.3 % PfCRT3D7 control. For the same substance, the “PfCRT-mediated [3H]CQ transport, trans-stimulation (% PfCRT3D7 control)” value (PfCRT^3D7 [6]; [11]) was 97 ± 4.2 % PfCRT3D7 control, the “Uptake of [3H]CQ (% PfCRTDd2 control), trans-stimulation” value (PfCRT^Dd2 [7]; PfCRTDd2 oocytes, [test solute]i = 45 mM (30 mM for some solutes due to solubility), total [3H]CQ transport, normalised to the oocyte type control) was 103 ± 3.6 % PfCRTDd2 control and the “PfCRT-mediated [3H]CQ transport, trans-stimulation (% PfCRTDd2 control)” value (PfCRT^Dd2 [7]; [test solute]i = 5 mM (intracellular), PfCRTDd2 oocytes) was 99 ± 2.9 % PfCRTDd2 control. For the same substance, the “PfCRT-mediated [3H]CQ transport, trans-stimulation (% PfCRTDd2 control)” value (PfCRT^Dd2 [7]; [test solute]i = 45 mM (intracellular; 30 mM for some solutes due to solubility), PfCRTDd2 oocytes) was 100 ± 4.9 % PfCRTDd2 control, the “[3H]CQ transport (% PfCRTDd2 control), trans-stimulation, PfCRTDd2” value (PfCRT^Dd2 [7]; [12]) was 99 ± 2.9 % PfCRTDd2 control and the “[3H]CQ transport (% PfCRTDd2 control), trans-stimulation, PfCRTDd2” value (PfCRT^Dd2 [7]; [9]) was 100 ± 4.9 % PfCRTDd2 control. The “Uptake of [3H]CQ (% PfCRTEcu1110 control), trans-stimulation” value (PfCRT^Ecu1110 [8]; [test solute]i = 5 mM) was 99 ± 3.2 % PfCRTEcu1110 control, the “Uptake of [3H]CQ (% PfCRTEcu1110 control), trans-stimulation” value (PfCRT^Ecu1110 [8]; [9]) was 100 ± 3.2 % PfCRTEcu1110 control and the “PfCRT-mediated [3H]CQ transport, trans-stimulation (% PfCRTEcu1110 control)” value (PfCRT^Ecu1110 [8]; [10]) was 97 ± 4.1 % PfCRTEcu1110 control. The “PfCRT-mediated [3H]CQ transport, trans-stimulation (% PfCRTEcu1110 control)” value (PfCRT^Ecu1110 [8]; [11]) was 98 ± 4.3 % PfCRTEcu1110 control, the “[3H]CQ transport (% PfCRTDd2 control), trans-stimulation, PfCRTEcu1110” value (PfCRT^Ecu1110 [8]; [12]) was 29 ± 1.5 % PfCRTEcu1110 control and the “[3H]CQ transport (% PfCRTDd2 control), trans-stimulation, PfCRTEcu1110” value (PfCRT^Ecu1110 [8]; [9]) was 30 ± 1.2 % PfCRTEcu1110 control. The “Uptake of [3H]CQ (% PfNT1 control), trans-stimulation” value (PfNT1; [test solute]i = 5 mM) was 99 ± 3.2 % PfNT1 control and the “Uptake of [3H]CQ (% PfNT1 control), trans-stimulation” value (PfNT1; [9]) was 100 ± 3.7 % PfNT1 control.
